pIC50: −log10 of the molar value.
Each compound was assayed against BTK enzyme (full-length BTK, hBTK) (Homo sapiens (Human), UniProt Q06187) (assay: Btk enzyme activity assay, LANCE TR-FRET). Conditions: 50 pM hBTK, 2 μM biotin-A5-peptide, 25 μM ATP, 60 minute compound & enzyme incubation, read-out: BTK binding IC50.
Format: biochemical
Protocol: BTK enzymatic activity was determined with the LANCE (Lanthanide Chelate Excite) TR-FRET (Time-resolved fluorescence resonance energy transfer) assay. In this assay, the potency (IC50) of each compound was determined from an eleven point (1:3 serial dilution; final compound concentration range in assay from 1 μM to 0.017 nM) titration curve using the following outlined procedure. To each well of a black non-binding surface Corning 384-well microplate (Corning Catalog #3820), 5 nL of compound (2000 fold dilution in final assay volume of 10 μL) was dispensed, followed by the addition of 7.5 μL of 1× kinase buffer (50 mM Hepes 7.5, 10 mM MgCl2, 0.01% Brij-35, 1 mM EGTA, 0.05% BSA & 1 mM DTT) containing 5.09 pg/μL (66.67 pM) of BTK enzyme (recombinant protein from baculovirus-transfected Sf9 cells: full-length BTK, 6HIS-tag cleaved). Following a 60 minute compound & enzyme incubation, each reaction was initiated by the addition of 2.5 μL 1× kinase buffer containing 8 μM biotinylated “A5” peptide (Biotin-EQEDEPEGDYFEWLE-NH2) (SEQ. ID. NO.: 1), and 100 μM ATP. The final reaction in each well of 10 μL consists of 50 pM hBTK, 2 μM biotin-A5-peptide, and 25 μM ATP. Phosphorylation reactions were allowed to proceed for 120 minutes. Reactions were immediately quenched by the addition of 20 uL of 1× quench buffer (15 mM EDTA, 25 mM Hepes 7.3, and 0.1% Triton X-100) containing detection reagents (0.626 nM of LANCE-Eu-W1024-anti-phosphoTyrosine antibody, PerkinElmer and 86.8 nM of Streptavidin-conjugated Dylight 650, Dyomics/ThermoFisher Scientific). After 60 minutes incubation with detection reagents, reaction plates were read on a PerkinElmer EnVision plate reader using standard TR-FRET protocol. Briefly, excitation of donor molecules (Eu-chelate:anti-phospho-antibody) with a laser light source at 337 nm produces energy that can be transferred to Dylight-650 acceptor molecules if this donor:acceptor pair is within close proximity. Fluorescence intensity at both 665 nm (acceptor) and 615 nm (donor) are measured and a TR-FRET ratio calculated for each well (acceptor intensity/donor intensity). IC50 values were determined by 4 parameter robust fit of TR-FRET ratio values vs. (Log10) compound concentrations.

Sequence of BTK enzyme (full-length BTK, hBTK) (Q06187 whole entry): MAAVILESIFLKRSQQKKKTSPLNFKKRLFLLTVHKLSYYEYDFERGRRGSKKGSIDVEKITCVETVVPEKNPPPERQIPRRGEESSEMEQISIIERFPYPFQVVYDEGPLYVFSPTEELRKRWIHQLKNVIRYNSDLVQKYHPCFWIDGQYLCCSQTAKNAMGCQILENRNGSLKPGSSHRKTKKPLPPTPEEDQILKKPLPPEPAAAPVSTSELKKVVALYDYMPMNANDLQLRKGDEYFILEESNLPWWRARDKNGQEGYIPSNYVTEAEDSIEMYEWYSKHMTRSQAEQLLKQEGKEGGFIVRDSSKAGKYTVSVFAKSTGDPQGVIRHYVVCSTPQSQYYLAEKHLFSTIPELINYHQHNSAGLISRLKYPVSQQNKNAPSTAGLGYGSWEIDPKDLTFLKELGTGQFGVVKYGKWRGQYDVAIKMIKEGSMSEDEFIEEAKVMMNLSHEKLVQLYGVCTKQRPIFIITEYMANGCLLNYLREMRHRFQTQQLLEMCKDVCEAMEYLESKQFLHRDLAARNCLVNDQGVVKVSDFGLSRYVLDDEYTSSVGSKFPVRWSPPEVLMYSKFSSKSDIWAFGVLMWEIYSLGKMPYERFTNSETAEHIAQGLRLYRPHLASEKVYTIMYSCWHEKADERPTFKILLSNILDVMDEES

| Structure (SMILES) | pIC50 |
| --- | --- |
| CCOc1cc(C(=O)Nc2cc(C(F)(F)F)ccn2)ccc1-c1nc([C@@]2(C)CC[C@@H]3COC(=O)N3C2)n2ccnc(N)c12 [Example 1, 4-(8-amino-3-((6S,8aR)-6-methyl-3-oxohexahydro-1H-oxazolo[3,4-a]pyridin-6-yl)imidazo[1,5-a]pyrazin-1-yl)-3-ethoxy-N-(4-(trifluoromethyl)pyridin-2-yl)benzamide] | 9.21 |
| CCOc1cc(C(=O)Nc2cc(C(F)(F)F)n(C)n2)ccc1-c1nc([C@]2(C)CC[C@H]3COC(=O)N3C2)n2ccnc(N)c12 [Example 8, 4-{8-amino-3-[(6R,8aS)-6-methyl-3-oxohexahydro[1,3]oxazolo[3,4-a]pyridin-6-yl]imidazo[1,5-a]pyrazin-1-yl}-3-ethoxy-N-[1-methyl-5-(trifluoromethyl)-1H-pyrazol-3-yl]benzamide] | 9.15 |
| CCOc1cc(C(=O)Nc2cc(C(F)(F)F)ccn2)ccc1-c1nc([C@@]2(C)CC[C@@H]3CN(C(C)C)CC(=O)N3C2)n2ccnc(N)c12 [Example 3, 4-(8-amino-3-((7S,9aR)-2-isopropyl-7-methyl-4-oxooctahydro-1H-pyrido[1,2-a]pyrazin-7-yl)imidazo[1,5-a]pyrazin-1-yl)-3-ethoxy-N-(4-(trifluoromethyl)pyridin-2-yl)benzamide bis(2,2,2-trifluoroacetate)] | 9.21 |
| CCOc1cc(C(=O)Nc2cc(C(F)(F)F)n(C)n2)ccc1-c1nc([C@@]2(C)CC[C@@H]3COC(=O)N3C2)n2ccnc(N)c12 [Example 2, 4-(8-amino-3-((6S,8aR)-6-methyl-3-oxohexahydro-1H-oxazolo[3,4-a]pyridin-6-yl)imidazo[1,5-a]pyrazin-1-yl)-3-ethoxy-N-(1-methyl-5-(trifluoromethyl)-1H-pyrazol-3-yl)benzamide] | 8.51 |
| CCOc1cc(C(=O)Nc2cc(C(F)(F)F)ccn2)ccc1-c1nc([C@]2(C)CC[C@H]3COC(=O)N3C2)n2ccnc(N)c12 [Example 7] | 9.23 |
| CCOc1cc(C(=O)Nc2cc(C(F)(F)F)ccn2)ccc1-c1nc(C2(CC)CCC3CCN(CC)C(=O)N3C2)n2ccnc(N)c12 (single isomer, unassigned) [Example 5, 4-[8-amino-3-(2,7-diethyl-1-oxooctahydro-1H-pyrido[1,2-c]pyrimidin-7-yl)imidazo[1,5-a]pyrazin-1-yl]-3-ethoxy-N-[4-(trifluoromethyl)pyridin-2-yl] benzamide] | 6.00 |
| CCOc1cc(C(=O)Nc2cc(C(F)(F)F)n(C)n2)ccc1-c1nc([C@@]2(C)CC[C@@H]3CN(C(C)C)CC(=O)N3C2)n2ccnc(N)c12 [Example 4, 4-(8-amino-3-((7S,9aR)-2-isopropyl-7-methyl-4-oxooctahydro-1H-pyrido[1,2-a]pyrazin-7-yl)imidazo[1,5-a]pyrazin-1-yl)-3-ethoxy-N-(1-methyl-5-(trifluoromethyl)-1H-pyrazol-3-yl)benzamide bis(2,2,2-trifluoroacetate)] | 8.60 |
| CCOc1cc(C(=O)Nc2cc(C(F)(F)F)ccn2)ccc1-c1nc(C2(CC)CCC3CCN(CC)C(=O)N3C2)n2ccnc(N)c12 (single isomer, unassigned) [Example 6, 4-[8-amino-3-(2,7-diethyl-1-oxooctahydro-1H-pyrido[1,2-c]pyrimidin-7-yl)imidazo[1,5-a]pyrazin-1-yl]-3-ethoxy-N-[4-(trifluoromethyl)pyridin-2-yl] benzamide] | 6.67 |
| C[C@@]1(c2nc(-c3ccc(C(=O)Nc4cc(C(F)(F)F)ccn4)cc3F)c3c(N)nccn23)CC[C@H]2COC(=O)N2C1 [Example 9, 4-{8-amino-3-[(6R,8aS)-6-methyl-3-oxohexahydro[1,3]oxazolo[3,4-a]pyridin-6-yl]imidazo[1,5-a]pyrazin-1-yl}-3-fluoro-N-[4-(trifluoromethyl)pyridin-2-yl] benzamide] | 9.66 |

The next lines start with the values.

| pIC50 | Structure (SMILES) |
| --- | --- |
| 8.47 | CCOc1cc(C(=O)Nc2cc(C(F)(F)F)n(C)n2)c(Cl)cc1-c1nc([C@]2(C)CC[C@H]3CN(C(C)C)CC(=O)N3C2)n2ccnc(N)c12 [Example 16, 4-{8-amino-3-[(7R,9aS)-7-methyl-2-(1-methylethyl)-4-oxooctahydro-2H-pyrido[1,2-a]pyrazin-7-yl]imidazo[1,5-a]pyrazin-1-yl}-2-chloro-5-ethoxy-N-[1-methyl-5-(trifluoromethyl)-1H-pyrazol-3-yl] benzamide] |
| 9.74 | C[C@@]1(c2nc(-c3ccc(C(=O)Nc4cc(C(F)(F)F)ccn4)cc3)c3c(N)nccn23)CC[C@H]2CCC(=O)N2C1 [Example 17, 4-(8-amino-3-((6R,8aS)-6-methyl-3-oxooctahydroindolizin-6-yl)imidazo[1,5-a]pyrazin-1-yl)-N-(4-(trifluoromethyl)pyridin-2-yl)benzamide] |
| 9.23 | CCOc1cc(C(=O)Nc2cc(C(F)(F)F)ccn2)cc(F)c1-c1nc([C@]2(C)CC[C@H]3COC(=O)N3C2)n2ccnc(N)c12 [Example 11, 4-{8-amino-3-[(6R,8aS)-6-methyl-3-oxohexahydro[1,3]oxazolo[3,4-a]pyridin-6-yl]imidazo[1,5-a]pyrazin-1-yl}-3-ethoxy-5-fluoro-N-[4-(trifluoromethyl)pyridin-2-yl] benzamide] |
| 8.90 | CCOc1cc(C(=O)Nc2cc(C(F)(F)F)n(C)n2)ccc1-c1nc([C@]2(C)CC[C@H]3CN(C(C)C)CC(=O)N3C2)n2ccnc(N)c12 [Example 15, 4-{8-amino-3-[(7R,9aS)-7-methyl-2-(1-methylethyl)-4-oxooctahydro-2H-pyrido[1,2-a]pyrazin-7-yl]imidazo[1,5-a]pyrazin-1-yl}-3-ethoxy-N-[1-methyl-5-(trifluoromethyl)-1H-pyrazol-3-yl]benzamide] |
| 9.36 | CCOc1cc(C(=O)Nc2cc(C(F)(F)F)ccn2)ccc1-c1nc([C@]2(C)CC[C@H]3CCC(=O)N3C2)n2ccnc(N)c12 [Example 18, 4-(8-amino-3-((6R,8aS)-6-methyl-3-oxooctahydroindolizin-6-yl)imidazo[1,5-a]pyrazin-1-yl)-3-ethoxy-N-(4-(trifluoromethyl)pyridin-2-yl)benzamide] |
| 9.38 | CCOc1cc(C(=O)Nc2cc(C(F)(F)F)ccn2)ccc1-c1nc([C@]2(C)CC[C@H]3CN(C(C)C)CC(=O)N3C2)n2ccnc(N)c12 [Example 14, 4-{8-amino-3-[(7R,9aS)-7-methyl-2-(1-methylethyl)-4-oxooctahydro-2H-pyrido[1,2-a]pyrazin-7-yl]imidazo[1,5-a]pyrazin-1-yl}-3-ethoxy-N-[4-(trifluoromethyl)pyridin-2-yl] benzamide] |
| 8.00 | CCOc1cc(C(=O)Nc2cc(C(F)(F)F)ccn2)ccc1-c1nc(C2(C)CCC3CCN(C)C(=O)N3C2)n2ccnc(N)c12 (stereo not shown) [Example 13, 4-[8-amino-3-(2,7-dimethyl-1-oxooctahydro-1H-pyrido[1,2-c]pyrimidin-7-yl)imidazo[1,5-a]pyrazin-1-yl]-3-ethoxy-N-[4-(trifluoromethyl)pyridin-2-yl] benzamide] |
| 6.39 | CCOc1cc(C(=O)Nc2cc(C(F)(F)F)ccn2)ccc1-c1nc(C2(C)CCC3CCN(C)C(=O)N3C2)n2ccnc(N)c12 (stereo not shown) [Example 12, 4-[8-amino-3-(2,7-dimethyl-1-oxooctahydro-1H-pyrido[1,2-c]pyrimidin-7-yl)imidazo[1,5-a]pyrazin-1-yl}-3-ethoxy-N-[4-(trifluoromethyl)pyridin-2-yl] benzamide] |
| 9.48 | COc1cc(C(=O)Nc2cc(C(F)(F)F)ccn2)ccc1-c1nc([C@]2(C)CC[C@H]3CCC(=O)N3C2)n2ccnc(N)c12 [Example 19, 4-(8-amino-3-((6R,8aS)-6-methyl-3-oxooctahydroindolizin-6-yl)imidazo[1,5-a]pyrazin-1-yl)-3-methoxy-N-(4-(trifluoromethyl)pyridin-2-yl)benzamide] |
| 9.74 | C[C@@]1(c2nc(-c3ccc(C(=O)Nc4cc(C5CC5)ccn4)cc3F)c3c(N)nccn23)CC[C@H]2COC(=O)N2C1 [Example 10, 4-{8-amino-3-[(6R,8aS)-6-methyl-3-oxohexahydro[1,3]oxazolo[3,4-a]pyridin-6-yl]imidazo[1,5-a]pyrazin-1-yl}-N-(4-cyclopropylpyridin-2-yl)-3-fluorobenzamide] |

— patent US10040805B2, “Substituted imidazo[1,5-a]pyrazines as Btk inhibitors” (MERCK SHARP & DOHME CORP., priority 2014, dated 2018)
